Experimental data reported in ChEMBL document CHEMBL1156499, “Tripeptides of RS1 (RSC1A1) inhibit a monosaccharide-dependent exocytotic pathway of Na+-D-glucose cotransporter SGLT1 with high affinity” (J Biol Chem, 2007).
Calls of active or inactive are those of the source. The calls are words filed in the database; no cut-off is given here. Peptide text beside a SMILES is read from it.

Columns and labels:
[1] = biological target: T1, Sodium/glucose cotransporter 1 (Homo sapiens) (UniProt P13866); assay: Inhibition of human SGLT1 expressed in xenopus laevis oocyte assessed as inhibition of methyl-alpha-D-[14C]glucopyranoside uptake at 75 pmol after 1 hr relative to control; design: Activity: scale not given: the % may be the effect or the level left
T1 sequence (whole entry): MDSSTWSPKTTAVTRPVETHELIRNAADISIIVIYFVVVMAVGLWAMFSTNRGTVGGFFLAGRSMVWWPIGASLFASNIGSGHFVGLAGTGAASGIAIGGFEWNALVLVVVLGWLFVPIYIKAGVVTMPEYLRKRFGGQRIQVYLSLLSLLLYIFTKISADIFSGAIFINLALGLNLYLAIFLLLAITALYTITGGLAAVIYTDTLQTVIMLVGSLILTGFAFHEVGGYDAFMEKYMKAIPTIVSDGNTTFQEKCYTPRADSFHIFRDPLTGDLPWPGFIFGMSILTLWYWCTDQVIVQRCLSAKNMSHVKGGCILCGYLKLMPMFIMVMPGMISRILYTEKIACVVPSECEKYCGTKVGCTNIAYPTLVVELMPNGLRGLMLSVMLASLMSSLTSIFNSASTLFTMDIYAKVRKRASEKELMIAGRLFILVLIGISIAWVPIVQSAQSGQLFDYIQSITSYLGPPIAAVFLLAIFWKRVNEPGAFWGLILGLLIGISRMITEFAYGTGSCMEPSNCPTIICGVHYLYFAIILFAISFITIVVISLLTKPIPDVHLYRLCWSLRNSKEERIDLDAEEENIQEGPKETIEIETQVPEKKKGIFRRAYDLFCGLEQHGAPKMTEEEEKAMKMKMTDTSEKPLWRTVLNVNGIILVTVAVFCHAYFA

[2] = biological target: T2, Solute carrier family 15 member 1 (Homo sapiens) (UniProt P46059); assay: Activity of human PepT1 expressed in xenopus laevis oocyte assessed as induction of inward current at 5 mM
T2 sequence (whole entry): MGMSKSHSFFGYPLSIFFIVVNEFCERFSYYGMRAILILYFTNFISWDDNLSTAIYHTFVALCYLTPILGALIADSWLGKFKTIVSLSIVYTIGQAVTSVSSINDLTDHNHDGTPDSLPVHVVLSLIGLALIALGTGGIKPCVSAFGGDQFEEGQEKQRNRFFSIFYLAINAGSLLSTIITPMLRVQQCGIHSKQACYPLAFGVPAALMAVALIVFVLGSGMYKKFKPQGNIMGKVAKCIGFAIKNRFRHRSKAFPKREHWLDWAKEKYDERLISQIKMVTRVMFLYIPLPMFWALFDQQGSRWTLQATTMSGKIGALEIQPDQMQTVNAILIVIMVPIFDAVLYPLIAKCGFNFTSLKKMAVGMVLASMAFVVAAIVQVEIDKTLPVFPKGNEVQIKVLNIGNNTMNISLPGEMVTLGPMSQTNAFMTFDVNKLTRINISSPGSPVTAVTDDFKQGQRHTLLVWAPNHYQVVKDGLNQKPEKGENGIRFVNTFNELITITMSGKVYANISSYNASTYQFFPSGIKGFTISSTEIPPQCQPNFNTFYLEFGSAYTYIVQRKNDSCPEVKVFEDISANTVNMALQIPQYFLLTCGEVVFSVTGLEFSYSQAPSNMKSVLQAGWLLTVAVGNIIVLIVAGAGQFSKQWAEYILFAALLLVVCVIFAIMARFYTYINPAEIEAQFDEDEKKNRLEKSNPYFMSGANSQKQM

[3] = biological target: T1, Sodium/glucose cotransporter 1 (Homo sapiens); assay: Reversal of inhibition of human SGLT1 expressed in xenopus laevis oocyte assessed as inhibition of methyl-alpha-D-[14C]glucopyranoside uptake at 75 pmol after 1 hr in presence of 2-deoxyglucose relative to control
[4] = biological target: T1, Sodium/glucose cotransporter 1 (Homo sapiens); assay: Reversal of inhibition of human SGLT1 expressed in xenopus laevis oocyte assessed as inhibition of methyl-alpha-D-[14C]glucopyranoside uptake at 75 pmol after 1 hr in presence of methyl-alpha-D-glucopyranoside relative to control
[5] = biological target: T1, Sodium/glucose cotransporter 1 (Homo sapiens); assay: Reversal of inhibition of human SGLT1 expressed in xenopus laevis oocyte assessed as inhibition of methyl-alpha-D-[14C]glucopyranoside uptake at 75 pmol after 1 hr in presence of D-glucose relative to control
[6] = biological target: T1, Sodium/glucose cotransporter 1 (Homo sapiens); assay: Reversal of inhibition of human SGLT1 expressed in xenopus laevis oocyte by measuring inhibition of methyl-alpha-D-[14C]glucopyranoside uptake after 1 hr assessed concentration required for 50% protective high affinity in presence of methyl-alpha-D-glucopyranoside relative to control
[7] = biological target: T1, Sodium/glucose cotransporter 1 (Homo sapiens); assay: Reversal of inhibition of human SGLT1 expressed in xenopus laevis oocyte by measuring inhibition of methyl-alpha-D-[14C]glucopyranoside uptake after 1 hr assessed concentration required for 50% protective high affinity in presence of 2-deoxyglucose relative to control
[8] = biological target: T1, Sodium/glucose cotransporter 1 (Homo sapiens); assay: Reversal of inhibition of human SGLT1 expressed in xenopus laevis oocyte assessed as inhibition of methyl-alpha-D-[14C]glucopyranoside uptake at 75 pmol after 1 hr in presence of D-fructose relative to control
Small intestine = assay: Decrease of D-glucose absorption in perfused rat small intestine at 15 mM relative to control; type: functional; design: scale not given: the % may be the effect or the level left
[9] = biological target: T1, Sodium/glucose cotransporter 1 (Homo sapiens); assay: Reversal of inhibition of human SGLT1 expressed in xenopus laevis oocyte by measuring inhibition of methyl-alpha-D-[14C]glucopyranoside uptake after 1 hr assessed concentration required for 50 % protective high affinity in presence of D-glucose relative to control
[10] = substrate: NC(=O)CC[C@H](N)C(=O)N[C@@H](CO)C(=O)N1CCC[C@H]1C(=O)O; assay: Activity of human PepT1 expressed in xenopus laevis oocyte assessed as induction of inward current

Molecule: CC(=O)N[C@@H](CCC(N)=O)C(=O)N[C@@H](CS)C(=O)N1CCC[C@H]1C(=O)O (Ac-Gln-Cys-Pro-OH)
- Activity [1]: inactive
- Activity [2]: Active

Molecule: CC(=O)N[C@@H](CCC(N)=O)C(=O)N[C@@H](CCC(=O)O)C(=O)N1CCC[C@H]1C(=O)O (Ac-Gln-Glu-Pro-OH)
- Activity [1]: Active

Molecule: CC(=O)N1CCC[C@H]1C(=O)NCC(=O)N[C@@H](CCC(N)=O)C(=O)O (Ac-Pro-Gly-Gln-OH)
- Activity [1]: Active

Molecule: CC(=O)N1CCC[C@H]1C(=O)N[C@@H](CC(C)C)C(=O)N[C@@H](CCC(N)=O)C(=O)O (Ac-Pro-Leu-Gln-OH)
- Activity [1]: Active

Molecule: CC(=O)N1CCC[C@H]1C(=O)N1CCC[C@H]1C(=O)N[C@@H](CCC(N)=O)C(=O)O (Ac-Pro-Pro-Gln-OH)
- Activity [1]: Active

Molecule: CC(=O)N1CCC[C@H]1C(=O)N[C@@H](CO)C(=O)N[C@@H](CCC(N)=O)C(=O)O (Ac-Pro-Ser-Gln-OH)
- Activity [1]: 44%

Molecule: CC(=O)N1CCC[C@H]1C(=O)N[C@H](C(=O)N[C@@H](CCC(N)=O)C(=O)O)[C@@H](C)O (Ac-Pro-Thr-Gln-OH)
- Activity [1]: Active

Molecule: NC(=O)CC[C@H](N)C(=O)N[C@@H](CS)C(=O)N1CCC[C@H]1C(=O)O (H-Gln-Cys-Pro-OH)
- Activity [1]: Active
- Activity [3]: Active
- Activity [4]: Active
- Activity [5]: Active
- Activity [6]: 53 µM
- Activity [7]: 11.9 µM
- Activity [8]: Active

Molecule: NC(=O)CC[C@H](N)C(=O)N[C@@H](CO)C(=O)N1CCC[C@H]1C(=O)O (H-Gln-Ser-Pro-OH)
- Activity [1]: Active
- Activity (Small intestine): 30%
- Activity [3]: Active
- Activity [4]: Active
- Activity [5]: Active
- Activity [6]: 53 µM
- Activity [7]: 11.9 µM
- Activity [9]: 30 µM
- Activity [8]: Active
- Activity [2]: Active

Molecule: NCC(=O)N[C@@H](CCC(N)=O)C(=O)O (H-Gly-Gln-OH)
- Activity [2]: Active

Molecule: Ac-SVQPCQENQ-OH
- inhibition [1]: 55%

B1: Solute carrier family 15 member 1 (Homo sapiens), P46059 (protein)
chain: MGMSKSHSFFGYPLSIFFIVVNEFCERFSYYGMRAILILYFTNFISWDDNLSTAIYHTFVALCYLTPILGALIADSWLGKFKTIVSLSIVYTIGQAVTSVSSINDLTDHNHDGTPDSLPVHVVLSLIGLALIALGTGGIKPCVSAFGGDQFEEGQEKQRNRFFSIFYLAINAGSLLSTIITPMLRVQQCGIHSKQACYPLAFGVPAALMAVALIVFVLGSGMYKKFKPQGNIMGKVAKCIGFAIKNRFRHRSKAFPKREHWLDWAKEKYDERLISQIKMVTRVMFLYIPLPMFWALFDQQGSRWTLQATTMSGKIGALEIQPDQMQTVNAILIVIMVPIFDAVLYPLIAKCGFNFTSLKKMAVGMVLASMAFVVAAIVQVEIDKTLPVFPKGNEVQIKVLNIGNNTMNISLPGEMVTLGPMSQTNAFMTFDVNKLTRINISSPGSPVTAVTDDFKQGQRHTLLVWAPNHYQVVKDGLNQKPEKGENGIRFVNTFNELITITMSGKVYANISSYNASTYQFFPSGIKGFTISSTEIPPQCQPNFNTFYLEFGSAYTYIVQRKNDSCPEVKVFEDISANTVNMALQIPQYFLLTCGEVVFSVTGLEFSYSQAPSNMKSVLQAGWLLTVAVGNIIVLIVAGAGQFSKQWAEYILFAALLLVVCVIFAIMARFYTYINPAEIEAQFDEDEKKNRLEKSNPYFMSGANSQKQM
- Km [10]: 4.2 mM
